Measured values as given in PMC3166071, “Ancient Antimicrobial Peptides Kill Antibiotic-Resistant Pathogens: Australian Mammals Provide New Options” (PLoS ONE, 2011).
Converted amounts (≈) assume the structure as drawn. Like-named read-outs stand apart in the source and are kept apart here. Where no end group is shown, it is not given here.

Tests used:
E. coli DH5α = test: microbe, parasite or virus in culture; type: cell-based, Escherichia coli; details: for Relative potency of WAM1: against E. coli, WAM1 relative to the antibiotic of the line
Procedure: (§1) Peptides were synthesized and HPLC purified (AusPep Pty Ltd). The two-stage radial diffusion assay used in this study has been described elsewhere. Briefly, ∼4×10^6 of mid-logarithmic-phase organisms were mixed into 10 ml of warm 0.8% agarose containing 0.03% (w/v) Trypticase soy broth (TSB) powder buffered with 10 mM sodium phosphate, pH 7.4. The synthetic peptides were serially diluted in 0.01% acetic acid and 5 µl peptide samples were loaded in 2.5 mm diameter wells. The plates were covered, and incubated at 37°C. After 3 hours, a 10 ml overlay gel composed of 6% TSB, 0.8% agarose in 10 mM sodium phosphate buffer (pH 7.4) was poured onto the plates. The plates were incubated overnight to allow the surviving organisms to form microcolonies. The clear zone was measured using a magnified transilluminator and expressed in units (1 mm = 10 U) after subtracting the well diameter. The MIC is defined by the χ intercept of a regression line through zone diameters obtained from a series of serially diluted peptide samples. For multidrug-resistant bacteria, MICs were measured as described by micro-broth dilution in Mueller-Hinton broth (Oxoid, Hampshire, England) according to according to Clinical and Laboratory Standards Institute (CLSI) standards. The MIC measurements were performed in duplicate and the data incorporated into a final MIC using standard methods. All the bacterial strains were tested on at least two different occasions. Mid-logarithmic phase cultures of P. aeruginosa 19056 muc were diluted in Mueller–Hinton broth to yield approximately 10^6 cfu/ml. Peptides were added at the indicated concentrations and the suspensions were then incubated for different times in a shaking water bath at 35°C. At the end of each incubation time, the samples were serially diluted in buffered saline and plated onto nutrient agar with a spiral plater (Don Whitley Scientific, Australia). Colonies were counted after 17–22 h incubation at 35°C using an automatic colony counter (Don Whitley Scientific, Australia).

C. albicans (ATCC 753) = type: cell-based, Candida albicans
Procedure: as §1

B. subtilis = type: cell-based, Bacillus subtilis
Procedure: as §1

[1] = test system: Sal. enterica (ATCC 14028); type: cell-based
Procedure: as §1

[2] = test system: Strep. pyogenes (ATCC 19615); type: cell-based
Procedure: as §1

Strep. uberis = type: cell-based, Streptococcus uberis
Procedure: as §1

K. pneumoniae [3] = type: cell-based, Klebsiella pneumoniae; details: 3 h
Procedure: as §1

S. aureus (ATCC 25923) = type: cell-based, Staphylococcus aureus; details: ATCC 25923, 3 h, pH 7.4
Procedure: as §1

human red blood cells = type: cell-based
Procedure: Figure 4 Toxicity of WAM1 on human red blood cells. Haemolytic activity was determined by treating human red blood cells with different concentrations of WAM1 and haemoglobin release measured by absorbance at 450 nm. Samples were incubated at 37°C for 1 hour. PBS and 1% Tween-20 were used as negative and positive controls, representing 0% and 100% hemolytic activity respectively.

[4] = test system: P. aeruginosa (ATCC 27853); type: cell-based, Pseudomonas aeruginosa; details: ATCC 27853, 3 h, pH 7.4
Procedure: as §1

P. aeruginosa = type: cell-based, Pseudomonas aeruginosa; details: 3 h
Procedure: as §1

A. baumannii = type: cell-based, Acinetobacter baumannii; details: 3 h
Procedure: as §1

K. pneumoniae [5] = type: cell-based, Klebsiella pneumoniae; details: 3 h; remark: listed apart in the source
Procedure: Figure 3 Time course of K. pneumoniae killing by WAM1 in broth. Time marked in minutes. […] Antimicrobial assays were performed as described previously.
Peptides were synthesized and HPLC purified (AusPep Pty Ltd). The two-stage radial diffusion assay used in this study has been described elsewhere. Briefly, ∼4×10^6 of mid-logarithmic-phase organisms were mixed into 10 ml of warm 0.8% agarose containing 0.03% (w/v) Trypticase soy broth (TSB) powder buffered with 10 mM sodium phosphate, pH 7.4. The synthetic peptides were serially diluted in 0.01% acetic acid and 5 µl peptide samples were loaded in 2.5 mm diameter wells. The plates were covered, and incubated at 37°C. After 3 hours, a 10 ml overlay gel composed of 6% TSB, 0.8% agarose in 10 mM sodium phosphate buffer (pH 7.4) was poured onto the plates. The plates were incubated overnight to allow the surviving organisms to form microcolonies. The clear zone was measured using a magnified transilluminator and expressed in units (1 mm = 10 U) after subtracting the well diameter. […] For multidrug-resistant bacteria, MICs were measured as described by micro-broth dilution in Mueller-Hinton broth (Oxoid, Hampshire, England) according to according to Clinical and Laboratory Standards Institute (CLSI) standards. […] Colonies were counted after 17–22 h incubation at 35°C using an automatic colony counter (Don Whitley Scientific, Australia).

[6] = Escherichia coli, Table 2, against E. coli, comparison of WAM1 with antibiotics, read-out: MIC
[7] = DH5α, 3 h, pH 7.4, read-out: MIC

Row | Compound | Relative potency of WAM1 (E. coli DH5α) [x] | MIC (C. albicans (ATCC 753); ATCC 753, 3 h, pH 7.4) [µM] | MIC (S. aureus (ATCC 25923)) [µM] | MIC (B. subtilis; 3 h, pH 7.4) [µM] | MIC [4] [µM] | MIC ([1]; ATCC 14028, 3 h, pH 7.4) [µM] | MIC ([2]; ATCC 19615, 3 h, pH 7.4) [µM] | MIC (E. coli DH5α; [7]) [µM] | MIC (Strep. uberis; 3 h, pH 7.4) [µM] | other results
1 | CC1(C)S[C@@H]2[C@H](NC(=O)[C@H](N)c3ccccc3)C(=O)N2[C@H]1C(=O)O [Ampicillin] | 12 | – | – | – | – | – | – | – | – | MIC (E. coli DH5α; [6]): 5.7 µM (≈ 1.99 µg/mL)
2 | O=C(N[C@H](CO)[C@H](O)c1ccc([N+](=O)[O-])cc1)C(Cl)Cl [Chloramphenicol] | 26 | – | – | – | – | – | – | – | – | MIC (E. coli DH5α; Escherichia coli): 12.4 µM (≈ 4.01 µg/mL)
3 | CC[C@H](C)[C@H](NC(=O)[C@H](CCCCN)NC(=O)[C@H](CCC(=O)O)NC(=O)[C@H](CCCCN)NC(=O)[C@H](CO)NC(=O)[C@H](CCCCN)NC(=O)[C@H](CCCNC(=N)N)NC(=O)[C@H](Cc1ccccc1)NC(=O)[C@H](Cc1ccccc1)NC(=O)[C@H](CC(=O)O)NC(=O)CNC(=O)[C@H](CC(C)C)NC(=O)[C@@H](N)CC(C)C)C(=O)NCC(=O)N[C@@H](CCCCN)C(=O)N[C@@H](CCC(=O)O)C(=O)N[C@@H](Cc1ccccc1)C(=O)N[C@@H](CCCCN)C(=O)N[C@@H](CCCNC(=N)N)C(=O)N[C@H](C(=O)N[C@H](C(=O)N[C@@H](CCC(N)=O)C(=O)N[C@@H](CCCNC(=N)N)C(=O)N[C@H](C(=O)N[C@@H](CCCCN)C(=O)N[C@@H](CC(=O)O)C(=O)N[C@@H](Cc1ccccc1)C(=O)N[C@@H](CC(C)C)C(=O)N[C@@H](CCCNC(=N)N)C(=O)N[C@@H](CC(N)=O)C(=O)N[C@@H](CC(C)C)C(=O)N[C@H](C(=O)N1CCC[C@H]1C(=O)N[C@@H](CCCNC(=N)N)C(=O)N[C@H](C(=O)N[C@@H](CCC(=O)O)C(=O)N[C@@H](CO)C(=O)O)[C@@H](C)O)C(C)C)[C@@H](C)CC)C(C)C)[C@@H](C)CC [LL37, reference compound] | – | – | – | – | – | – | – | – | – | MIC (C. albicans (ATCC 753); C. albicans (ATCC 753), two-stage radial diffusion, 10 mM sodium phosphate pH 7.4, 37°C): >56 µM; MIC (B. subtilis; B. subtilis, two-stage radial diffusion, 10 mM sodium phosphate pH 7.4, 37°C): 8.62 µM (≈ 38.7 µg/mL); MIC ([1]; Sal. enterica (ATCC 14028), two-stage radial diffusion, 10 mM sodium phosphate pH 7.4, 37°C): 4.30 µM (≈ 19.3 µg/mL); MIC ([2]; Strep. pyogenes (ATCC 19615), two-stage radial diffusion, 10 mM sodium phosphate pH 7.4, 37°C): >55 µM; MIC (E. coli DH5α; E. coli DH5α, two-stage radial diffusion, 0.8% agarose, 0.03% TSB, 10 mM sodium phosphate pH 7.4, 37°C, MIC = x intercept of regression line of zone diameters, read-out: MIC): 5.57 µM (≈ 25 µg/mL); MIC (Strep. uberis; Strep. uberis, two-stage radial diffusion, 10 mM sodium phosphate pH 7.4, 37°C): 2.24 µM (≈ 10.1 µg/mL)
4 | CN(C)[C@@H]1C(O)=C(C(N)=O)C(=O)[C@@]2(O)C(O)=C3C(=O)c4c(O)cccc4[C@@](C)(O)[C@H]3C[C@@H]12 [Tetracycline] | 10 | – | – | – | – | – | – | – | – | MIC (E. coli DH5α; [6]): 4.5 µM (≈ 2 µg/mL)
5 | KRGFGKKLRKRLKKFRNSIKKRLKNFNVVIPIPLPG [WAM1] | – | 1.30 | 1.01 | 1.50 | 0.77 | 1.14 | 0.66 | 0.47 | 1.22 | MIC 0 mM NaCl (K. pneumoniae [3]): 0.5 µM; MIC 150 mM NaCl (K. pneumoniae [3]): 0.9 µM; MIC 200 mM NaCl (K. pneumoniae [3]): 0.9 µM; Haemolytic activity against human red blood cells (human red blood cells): not hemolytic; MIC 0 mM NaCl (P. aeruginosa): 0.9 µM; MIC 150 mM NaCl (P. aeruginosa): 0.9 µM; MIC 200 mM NaCl (P. aeruginosa): 0.9 µM; MIC 0 mM NaCl (A. baumannii): 1.9 µM; MIC 150 mM NaCl (A. baumannii): 1.9 µM; MIC 200 mM NaCl (A. baumannii): 3.8 µM; MIC (E. coli DH5α; DH5α, 3 h, read-out: MIC): 0.47 µM; K. pneumoniae killed (K. pneumoniae [5]): 99.9%
6 | KRGLWESLKRKATKLGDDIRNTLRNFKIKFPVPRQG [WAM2] | – | 1.47 | 1.39 | 2.14 | 1.29 | 1.58 | 0.39 | 1.46 | 0.63 | –
7 | RPWAGNGSVHRYTVLSPRLKTQ [PAM2] | – | 2.50 | 2.42 | 3.37 | 0.73 | 1.11 | 0.83 | 0.87 | 0.51 | –
8 | RRGFWKRLRRRLRRFGDRIRNRFRNFREKLPDPFPG [Ancestral WAM] | – | 6.45 | 1.42 | 1.56 | 2.06 | 0.96 | 0.68 | 0.41 | 0.07 | –
9 | RTKRRIKLIKNGVKKVKDILKNNNIIILPGSNEK [PAM1] | – | >20 | 0.56 | 1.96 | 1.89 | 0.47 | 0.73 | 0.75 | 0.25 | –
